In experiment [1] the target is GDP-bound KRAS wild-type protein (Homo sapiens, UniProt P01116). Nature of the experiment: Binding to KRAS by surface plasmon resonance (SPR), dissociation constant KD. The conditions noted are these: Single Cycle Kinetics, 1:1 binding model. The method, boiled down:
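Running buffer contained 10 µM GDP and 10 mM MgCl2 to keep RAS in the GDP state, with 4% DMSO at pH 7.4. Compounds were flowed at 100 µL/min in 75 s steps of rising concentration over captured biotin-Avi RAS at 30°C. Sensorgrams were fitted 1:1 for KD.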

The target of experiment [2] is GDP-bound NRAS wild-type protein (Homo sapiens, UniProt P01111). Kind of experiment: Binding to NRAS by surface plasmon resonance (SPR), KD and KD ratio to KRAS. The conditions noted are these: ratio of the KD value with respect to GDP-bound NRAS wild-type protein to the KD value with respect to KRAS. The method, boiled down:
(§1)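 Recombinant RAS proteins bearing a biotinylated Avi tag and loaded with GDP served as the captured ligand, recaptured fresh every cycle. Binding responses were referenced to an uncoated surface and a buffer-only blank cycle. Dissociation constants were obtained by 1:1 model fitting at 30°C.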

The next experiment concerns the target HRAS wild-type protein (Homo sapiens, UniProt P01112). Kind of experiment: Binding to HRAS by surface plasmon resonance (SPR), KD and KD ratio to KRAS. Particulars: ratio of the KD value with respect to HRAS wild-type protein to the KD value with respect to KRAS. An outline of the steps:
as §1

Experiment [3] deals with human lung cancer strain NCI-H441. It is filed as cell-based. An outline of the steps: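 Signal came from […] measured per well once the reagent was added. Beforehand, cells were cultured at 37°C and 5% carbon dioxide on a compound series serially diluted in dimethyl sulfoxide.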

SMILES strings stand for the structures.

Chain of HRAS wild-type protein (P01112 whole entry): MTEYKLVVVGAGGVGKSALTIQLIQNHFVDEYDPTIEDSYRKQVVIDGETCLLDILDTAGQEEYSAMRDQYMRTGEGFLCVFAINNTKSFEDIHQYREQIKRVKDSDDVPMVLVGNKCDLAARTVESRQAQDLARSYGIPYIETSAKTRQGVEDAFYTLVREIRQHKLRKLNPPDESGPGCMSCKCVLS
Chain of GDP-bound NRAS wild-type protein (P01111 whole entry): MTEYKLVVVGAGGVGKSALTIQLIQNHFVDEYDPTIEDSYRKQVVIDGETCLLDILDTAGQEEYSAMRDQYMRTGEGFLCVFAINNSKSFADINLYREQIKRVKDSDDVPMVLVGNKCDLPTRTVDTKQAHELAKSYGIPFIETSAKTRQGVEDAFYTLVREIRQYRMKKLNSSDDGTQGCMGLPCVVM
Chain of GDP-bound KRAS wild-type protein (P01116 1-188 isoform P01116-2): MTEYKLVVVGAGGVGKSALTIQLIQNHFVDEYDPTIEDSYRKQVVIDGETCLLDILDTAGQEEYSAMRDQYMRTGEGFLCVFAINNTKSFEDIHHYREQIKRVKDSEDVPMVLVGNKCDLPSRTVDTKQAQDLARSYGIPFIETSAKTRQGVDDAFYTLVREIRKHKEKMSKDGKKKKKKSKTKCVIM

For the compound `CCO[C@@H]1C[C@H]2C(=O)NC3(CCC3)C(=O)N(C)[C@@H](C3CCCC3)C(=O)N(C)[C@H](C(=O)N(C)C)CC(=O)N(C)[C@@H](CC(C)C)C(=O)N[C@@H]([C@@H](C)CC)C(=O)N(C)CC(=O)N(C)[C@H]3CCCCCN(C3=O)[C@@H](Cc3ccc(C(F)(F)F)cc3)C(=O)N(C)CC(=O)N[C@@H](CCc3cc(F)c(C(F)(F)F)c(F)c3)C(=O)N2C1` [PP0469], the equilibrium dissociation constant (Kd) in experiment [1] is 0.76 nM. The “NRAS /KRAS” value in experiment [2] is “B (a compound having 3 or more and less than 10 is denoted as B)”. Further, the “HRAS /KRAS” value at HRAS wild-type protein is “B (a compound having 3 or more and less than 10 is denoted as B)”. In experiment [3], this compound had a 50% inhibitory concentration (IC50) of 36.1 nM.

With `CC[C@H](C)[C@@H]1NC(=O)[C@H](CC(C)C)N(C)C(=O)C[C@@H](C(=O)N2CCOCC2)N(C)C(=O)[C@H](C2CCCC2)N(C)C(=O)[C@](C)(CC)NC(=O)[C@@H]2CCCN2C(=O)[C@H](CCc2cc(F)c(C(F)(F)F)c(F)c2)NC(=O)CN(C)C(=O)[C@H](Cc2ccc(C(F)(F)F)cc2)N2CCCCC[C@@H](C2=O)N(C)C(=O)CN(C)C1=O` [PP0500], the Kd in experiment [1] was determined as 18 nM. In addition, in experiment [2], the “NRAS /KRAS” value was “B (a compound having 3 or more and less than 10 is denoted as B)”. The “HRAS /KRAS” value at HRAS wild-type protein is “B (a compound having 3 or more and less than 10 is denoted as B)”. This compound also displayed an IC50 in experiment [3] of 963 nM.

Compound `CC[C@H](C)[C@@H]1NC(=O)[C@H](CC(C)C)N(C)C(=O)C[C@@H](C(=O)N2CCOCC2)N(C)C(=O)[C@H](C2CCC2)N(C)C(=O)C2(CCCC2)NC(=O)[C@@H]2CCCN2C(=O)[C@H](CCc2cc(F)c(C(F)(F)F)c(F)c2)NC(=O)CN(C)C(=O)[C@H](Cc2ccc(C(F)(F)F)cc2)N2CCCCC[C@@H](C2=O)N(C)C(=O)CN(C)C1=O` [PP0504] displayed a Kd in experiment [1] of 14 nM. For the same compound, the “NRAS /KRAS” value in experiment [2] is “B (a compound having 3 or more and less than 10 is denoted as B)”. Further, the “HRAS /KRAS” value on HRAS wild-type protein is “B (a compound having 3 or more and less than 10 is denoted as B)”. This compound had a half-maximal inhibitory concentration (IC50) in experiment [3] of 235 nM.

For `CC[C@H](C)[C@@H]1NC(=O)[C@H](CC(C)C)N(C)C(=O)C[C@@H](C(=O)N2C3CCC2COC3)N(C)C(=O)[C@H](C2CCCC2)N(C)C(=O)C2(CCCC2)NC(=O)[C@@H]2CCCN2C(=O)[C@H](CCc2cc(F)c(C(F)(F)F)c(F)c2)NC(=O)CN(C)C(=O)[C@H](Cc2ccc(C(F)(F)F)cc2)N2CCCCC[C@@H](C2=O)N(C)C(=O)CN(C)C1=O` [PP0511], the Kd in experiment [1] amounted to 16 nM. Besides, in experiment [2], the “NRAS /KRAS” value is “A (a compound having 10 or more and less than 20 is denoted as A)”. Further, on HRAS wild-type protein, the “HRAS /KRAS” value was “B (a compound having 3 or more and less than 10 is denoted as B)”. Further, the IC50 in experiment [3] came out at 414 nM.

The compound `CC[C@H](C)[C@@H]1NC(=O)[C@H](CC(C)C)N(C)C(=O)C[C@@H](C(=O)N2CCOCC2)N(C)C(=O)[C@H](C2CCCC2)N(C)C(=O)C2(CCCC2)NC(=O)[C@@H]2CCCN2C(=O)[C@H](CCc2ccc(C(F)(F)F)c(Cl)c2)NC(=O)CN(C)C(=O)[C@H](Cc2ccccc2)N2CC=CC[C@@H](C2=O)N(C)C(=O)CN(C)C1=O` [PP0528] yielded a dissociation constant Kd in experiment [1] of 0.37 nM. Further, the “NRAS /KRAS” value in experiment [2] is “C (A compound having a KD ratio of 0.1 or more and less than 3 is denoted as C)”. Besides, on HRAS wild-type protein, the “HRAS /KRAS” value is “C (A compound having a KD ratio of 0.1 or more and less than 3 is denoted as C)”. The compound further displayed a half-inhibitory concentration (IC50) in experiment [3] of 21.8 nM.

Regarding `CC[C@H](C)[C@@H]1NC(=O)[C@H](CC(C)C)N(C)C(=O)C[C@@H](C(=O)N2CCOCC2)N(C)C(=O)[C@H](C2CCCC2)N(C)C(=O)C2(CCCC2)NC(=O)[C@@H]2CCCN2C(=O)[C@H](CCc2ccc(C(F)(F)F)c(Cl)c2)NC(=O)CN(C)C(=O)[C@H](Cc2ccccc2)N2CCCC[C@@H](C2=O)N(C)C(=O)CN(C)C1=O` [PP0529], the dissociation constant (Kd) in experiment [1] is 0.095 nM. Further, the “NRAS /KRAS” value in experiment [2] is “C (A compound having a KD ratio of 0.1 or more and less than 3 is denoted as C)”. On HRAS wild-type protein, the “HRAS /KRAS” value was “B (a compound having 3 or more and less than 10 is denoted as B)”. The IC50 in experiment [3] amounted to 6.5 nM.

`CC[C@H](C)[C@@H]1NC(=O)[C@H](CC(C)C)N(C)C(=O)C[C@@H](C(=O)N2CCOCC2)N(C)C(=O)[C@H](C2CCCC2)N(C)C(=O)C2(CCCC2)NC(=O)[C@@H]2CCCN2C(=O)[C@H](CCc2ccc(C(F)(F)F)c(Cl)c2)NC(=O)CN(C)C(=O)[C@H](Cc2ccc(F)cc2)N2CCCC[C@@H](C2=O)N(C)C(=O)CN(C)C1=O` [PP0530] registered a Kd in experiment [1] of 0.06 nM. In addition, in experiment [2], the “NRAS /KRAS” value is “C (A compound having a KD ratio of 0.1 or more and less than 3 is denoted as C)”. In addition, the “HRAS /KRAS” value at HRAS wild-type protein was “B (a compound having 3 or more and less than 10 is denoted as B)”. Moreover, the concentration for half-maximal inhibition (IC50) in experiment [3] amounted to 7 nM.

With `CC[C@H](C)[C@@H]1NC(=O)[C@H](CC(C)C)N(C)C(=O)C[C@@H](C(=O)N2CCOCC2)N(C)C(=O)[C@H](C2CCCC2)N(C)C(=O)C2(CCCC2)NC(=O)[C@@H]2CCCN2C(=O)[C@H](CCc2ccc(C(F)(F)F)c(Cl)c2)NC(=O)CN(C)C(=O)[C@H](Cc2ccc(Cl)cc2)N2CCCC[C@@H](C2=O)N(C)C(=O)CN(C)C1=O` [PP0532], in experiment [1], the dissociation constant (Kd) turned out to be 0.066 nM. Also, in experiment [2], the “NRAS /KRAS” value is “C (A compound having a KD ratio of 0.1 or more and less than 3 is denoted as C)”. At HRAS wild-type protein, the “HRAS /KRAS” value is “B (a compound having 3 or more and less than 10 is denoted as B)”. The midpoint of inhibition in experiment [3], the IC50, lay at 6.9 nM.

As for `CC[C@H](C)[C@@H]1NC(=O)[C@H](CC(C)C)N(C)C(=O)C[C@@H](C(=O)N2CCOCC2)NC(=O)[C@H](C2CCCC2)N(C)C(=O)C2(CCCC2)NC(=O)[C@@H]2CCCN2C(=O)[C@H](CCc2cc(F)c(C(F)(F)F)c(F)c2)NC(=O)CN(C)C(=O)[C@H](Cc2ccc(C(F)(F)F)cc2)N2CCCC[C@@H](C2=O)N(C)C(=O)CN(C)C1=O` [PP0541], the equilibrium dissociation constant (Kd) in experiment [1] is 0.47 nM. In experiment [2], the “NRAS /KRAS” value is “B (a compound having 3 or more and less than 10 is denoted as B)”. Further, the “HRAS /KRAS” value at HRAS wild-type protein was “B (a compound having 3 or more and less than 10 is denoted as B)”. In experiment [3], this compound had an IC50 of 83.3 nM.

Compound `CC[C@H](C)[C@@H]1NC(=O)[C@H](CC)N(C)C(=O)C[C@@H](C(=O)N2CCOCC2)N(C)C(=O)[C@H](C2CCCC2)N(C)C(=O)C2(CCCC2)NC(=O)[C@@H]2CCCN2C(=O)[C@H](CCc2cc(F)c(C(F)(F)F)c(F)c2)NC(=O)CN(C)C(=O)[C@H](Cc2ccc(C(F)(F)F)cc2)N2CCCC[C@@H](C2=O)N(C)C(=O)CN(C)C1=O` [PP0550] displayed a dissociation constant (Kd) in experiment [1] of 0.057 nM. In addition, the “NRAS /KRAS” value in experiment [2] was “B (a compound having 3 or more and less than 10 is denoted as B)”. Moreover, on HRAS wild-type protein, the “HRAS /KRAS” value is “B (a compound having 3 or more and less than 10 is denoted as B)”. This compound showed a concentration for half-maximal inhibition (IC50) in experiment [3] of 4.9 nM.

The compound `CC[C@H](C)[C@@H]1NC(=O)[C@H](CC(C)C)N(C)C(=O)C[C@@H](C(=O)N2CCOCC2)N(C)C(=O)[C@H](C2CCCC2)N(C)C(=O)C2(CCCC2)NC(=O)[C@@H]2CCCN2C(=O)[C@H](CCc2cc(F)c(C(F)(F)F)c(F)c2)NC(=O)CN(C)C(=O)[C@H](Cc2ccc(C(F)(F)F)cc2)N2CCCC[C@@H](C2=O)N(C)C(=O)[C@H](CC)N(C)C1=O` [PP0551] yielded a Kd in experiment [1] of 38 nM. Besides, in experiment [2], the “NRAS /KRAS” value was “C (A compound having a KD ratio of 0.1 or more and less than 3 is denoted as C)”. Besides, the “HRAS /KRAS” value on HRAS wild-type protein is “B (a compound having 3 or more and less than 10 is denoted as B)”. In experiment [3], inhibition was half-maximal at 401 nM (IC50).

In experiment [1], `CC[C@H](C)[C@@H]1NC(=O)[C@H](CC(C)C)N(C)C(=O)C[C@@H](C(=O)N2C3CCC2COC3)N(C)C(=O)[C@H](C2CCCC2)N(C)C(=O)C2(CCCC2)NC(=O)[C@@H]2CCCN2C(=O)[C@H](CCc2cc(F)c(C(F)(F)F)c(F)c2)NC(=O)CN(C)C(=O)[C@H](Cc2ccc(C(F)(F)F)cc2)N2CCCC[C@@H](C2=O)N(C)C(=O)CN(C)C1=O` [PP0573] returned a Kd of 0.34 nM. In addition, in experiment [2], the “NRAS /KRAS” value was “B (a compound having 3 or more and less than 10 is denoted as B)”. Besides, the “HRAS /KRAS” value at HRAS wild-type protein is “B (a compound having 3 or more and less than 10 is denoted as B)”. In addition, the IC50 in experiment [3] came out at 8.7 nM.

In experiment [1], `CC[C@H](C)[C@@H]1NC(=O)[C@@H](CC(C)C)N(C)C(=O)C[C@@H](C(=O)N2CCOCC2)N(C)C(=O)[C@H](C2CCCC2)N(C)C(=O)C2(CCCC2)NC(=O)[C@@H]2CCCN2C(=O)[C@H](CCc2cc(F)c(C(F)(F)F)c(F)c2)NC(=O)CN(C)C(=O)[C@H](Cc2ccc(C(F)(F)F)cc2)N2CCCC[C@@H](C2=O)N(C)C(=O)CN(C)C1=O` [PP0591] registered a Kd of 87 nM. In addition, in experiment [2], the “NRAS /KRAS” value was “B (a compound having 3 or more and less than 10 is denoted as B)”. Further, the “HRAS /KRAS” value at HRAS wild-type protein is “B (a compound having 3 or more and less than 10 is denoted as B)”. The compound further yielded a 50% inhibitory concentration (IC50) in experiment [3] of 3890 nM.

In turn, `CC[C@H](C)[C@@H]1NC(=O)[C@H](CC(C)C)N(C)C(=O)C[C@@H](C(=O)N2CCOCC2)N(C)C(=O)[C@H](C2CCCC2)N(C)C(=O)C2(CCCC2)NC(=O)[C@@H]2CCCN2C(=O)[C@H](CCc2ccc(C(F)(F)F)c(Cl)c2)NC(=O)CN(C)C(=O)[C@H](Cc2ccc(F)cc2)N2C/C=C\CC[C@@H](C2=O)N(C)C(=O)CN(C)C1=O` [PP0607] showed a Kd in experiment [1] of 0.97 nM. Moreover, in experiment [2], the “NRAS /KRAS” value is “C (A compound having a KD ratio of 0.1 or more and less than 3 is denoted as C)”. Also, on HRAS wild-type protein, the “HRAS /KRAS” value was “B (a compound having 3 or more and less than 10 is denoted as B)”. Further, the midpoint of inhibition in experiment [3], the IC50, lay at 119 nM.
